Results as given in patent US9321764B2, “Dihydro-pyrrolopyridinone inhibitors” (AbbVie Inc., priority 2013, dated 2016).

Legend:
[1] = target: T1, BRD4 (BDII_E352-M457) (Homo sapiens, UniProt O60885); test: TR-FRET bromodomain binding assay, second bromodomain of BRD4; details: His-tagged BD2, 30 nM Alexa647 probe; TR-FRET protocol A-E given per row
T1 construct: proliferation; Protocol; made in house
Procedure: (§1) A time-resolved fluorescence resonance energy transfer (TR-FRET) assay was used to determine the affinities of compounds of the Examples listed in Table 1 for each bromodomain of BRD4. His-tagged first (BD1: amino acids K57-E168) and second (BD2: amino acids E352-E168) bromodomains of BRD4 were expressed and purified. An Alexa647-labeled BET-inhibitor was used as the fluorescent probe in the assay.
(§2) Compound dilution series were prepared in DMSO via an approximately 3-fold serial dilution from one of the following:
(§3) Assay method D: 2.5 mM-800 nM
For Assay methods A, C, and D: Compounds were then diluted 6:100 in assay buffer (20 mM Sodium Phosphate, pH 6.0, 50 mM NaCl, 1 mM Ethylenediaminetetraacetic acid, 0.01% Triton X-100, 1 mM DL-Dithiothreitol) to yield 3× working solutions. […] Twelve μL of this solution were added to the assay plate to reach a final volume of 18 μL.
TR-FRET data were normalized to the means of 24 no-compound controls (“high”) and 8 controls containing 1 μM un-labeled probe (“low”). Percent inhibition was plotted as a function of compound concentration and the data were fit with the 4 parameter logistic equation to obtain IC50s Inhibition constants (Ki) were calculated from the IC50s, probe Kd and probe concentration. Typical Z′ values were between 0.65 and 0.75.

[2] = target: T2, BRD4 (BDI_K57-E168) (Homo sapiens, UniProt O60885); test: TR-FRET bromodomain binding assay, first bromodomain of BRD4; details: His-tagged BD1, 100 nM Alexa647 probe; TR-FRET protocol A-E given per row
T2 construct: BD1: amino acids K57-E168; made in house
Procedure: as §1, §2
Assay method A: 250 μM-4.2 nM
Assay method B: 0.47 mM to 7.8 nM
Assay method C: 500 μM-8.5 nM
as §3
Assay method E: 0.047 mM to 0.78 nM or 5-fold serial dilution from Assay method D
For Assay methods A, C, and D: Compounds were then diluted 6:100 in assay buffer (20 mM Sodium Phosphate, pH 6.0, 50 mM NaCl, 1 mM Ethylenediaminetetraacetic acid, 0.01% Triton X-100, 1 mM DL-Dithiothreitol) to yield 3× working solutions. Six microliters (μL) of the working solution was then transferred to white, low-volume assay plates (Costar #3673). A 1.5× assay mixture containing His-tagged bromodomain, Europium-conjugated anti-His antibody (Invitrogen PV5596) and the Alexa-647-conjugated probe molecule was also prepared. Twelve μL of this solution were added to the assay plate to reach a final volume of 18 μL.
For Assay methods B and E: Compound dilutions were added directly into white, low-volume assay plates (Perkin Elmer Proxiplate 384 Plus #6008280) using a Labcyte Echo in conjunction with Labcyte Access and Thermo Multidrop CombinL robotics. Compounds were then suspended in eight microliters (μL) of assay buffer (20 mM Sodium Phosphate, pH 6.0, 50 mM NaCl, 1 mM Ethylenediaminetetraacetic acid disodium salt dihydrate, 0.01% Triton X-100, 1 mM DL-Dithiothreitol) containing His-tagged bromodomain, Europium-conjugated anti-His antibody (Invitrogen PV5596) and Alexa-647-conjugated probe.
The final concentration of 1× assay mixture for assay methods A, B, C, D, and E contains 2% DMSO, 8 nM His-tagged bromodomain, 1 nM Europium-conjugated anti-His-tag antibody and 100 nM or 30 nM probe (for BDI or BDII, respectively) and compound concentration in the range of: 5 μM-85 pM for method A, 9.19 μM 150 pM for method B, 10 μM-169 pM for method C, 50 μM-16 nM for method D, and 0.92 μM-15 pM for method E.
After a one-hour equilibration at room temperature, TR-FRET ratios were determined using an Envision multilabel plate reader (Ex 340, Em 495/520).
TR-FRET data were normalized to the means of 24 no-compound controls (“high”) and 8 controls containing 1 μM un-labeled probe (“low”). Percent inhibition was plotted as a function of compound concentration and the data were fit with the 4 parameter logistic equation to obtain IC50s Inhibition constants (Ki) were calculated from the IC50s, probe Kd and probe concentration. Typical Z′ values were between 0.65 and 0.75. The minimum significant ratio was determined to evaluate assay reproducibility (Eastwood et al., (2006) J Biomol Screen, 11: 253-261). The MSR was determined to be 2.03 for BDI and 1.93 for BDII, and a moving MSR (last six run MSR overtime) for both BDI and BDII was typically <3.

Row | Structure (SMILES) | Ki [1] [nM] | Ki [2] [nM]
1 | Cn1cc(-c2cc(S(C)(=O)=O)ccc2OCCC2CCCC2)c2cc[nH]c(=O)c21 [Example 35, 3-[2-(2-cyclopentylethoxy)-5-(methylsulfonyl)phenyl]-1-methyl-1,6-dihydro-7H-pyrrolo[2,3-c]pyridin-7-one] | 111 | 42
2 | Cn1cc(-c2cc(NCc3ccnc4ccccc34)ccc2Oc2ccc(F)cc2F)c2cc[nH]c(=O)c21 [Example 179, 3-{2-(2,4-difluorophenoxy)-5-[(quinolin-4-ylmethyl)amino]phenyl}-1-methyl-1,6-dihydro-7H-pyrrolo[2,3-c]pyridin-7-one] | 231 | 69.9
3 | CCS(=O)(=O)c1cnc(Oc2ccc(F)cc2F)c(-c2cn(C)c3c(=O)[nH]ccc23)c1 [Example 59, 3-[2-(2,4-difluorophenoxy)-5-(ethylsulfonyl)pyridin-3-yl]-1-methyl-1,6-dihydro-7H-pyrrolo[2,3-c]pyridin-7-one] | 600 | 606
4 | CCS(=O)(=O)Nc1ccc(Oc2ccc(F)cc2F)c(-c2cn(C)c3c(=O)[nH]c(CN4CCOCC4)cc23)c1 [Example 182, N-{4-(2,4-difluorophenoxy)-3-[1-methyl-5-(morpholin-4-ylmethyl)-7-oxo-6,7-dihydro-1H-pyrrolo[2,3-c]pyridin-3-yl]phenyl}ethanesulfonamide] | 99.9 | 29.2
5 | CCS(=O)(=O)c1ccc(Oc2cnc(C)cc2C)c(-c2cn(C)c3c(=O)[nH]ccc23)c1 [Example 75, 3-{2[(4,6-dimethylpyridin-3-yl)oxy]-5-(ethylsulfonyl)phenyl}-1-methyl-1,6-dihydro-7H-pyrrolo[2,3-c]pyridin-7-one] | 42 | 131
6 | Cn1cc(-c2cc(S(C)(=O)=O)ccc2OCCC2CCCCC2)c2cc[nH]c(=O)c21 [Example 36, 3-[2-(2-cyclohexylethoxy)-5-(methylsulfonyl)phenyl]-1-methyl-1,6-dihydro-7H-pyrrolo[2,3-c]pyridin-7-one] | 515 | 146
7 | CCS(=O)(=O)c1ccc(Oc2ccc(Cl)c(Cl)c2)c(-c2cn(C)c3c(=O)[nH]ccc23)c1 [Example 76, 3-[2-(3,4-dichlorophenoxy)-5-(ethylsulfonyl)phenyl]-1-methyl-1,6-dihydro-7H-pyrrolo[2,3-c]pyridin-7-one] | 64 | 77
8 | CCS(=O)(=O)c1ccc(Oc2cncc(C)n2)c(-c2cn(C)c3c(=O)[nH]ccc23)c1 [Example 86, 3-{5-(ethylsulfonyl)-2-[(6-methylpyrazin-2-yl)oxy]phenyl}-1-methyl-1,6-dihydro-7H-pyrrolo[2,3-c]pyridin-7-one] | 764 | 697
9 | Cn1cc(-c2c(OCC3CC3)ccc3cc[nH]c23)c2cc[nH]c(=O)c21 [Example 98, 3-[6-(cyclopropylmethoxy)-1H-indol-7-yl]-1-methyl-1,6-dihydro-7H-pyrrolo[2,3-c]pyridin-7-one] | 2030 | 992
10 | COC(=O)/C=C/N(c1ccc(F)cc1)c1ccc(CS(C)(=O)=O)cc1-c1cn(C)c2c(=O)[nH]ccc12 [Example 166, methyl (2E)-3-[(4-fluorophenyl) {2-(1-methyl-7-oxo-6,7-dihydro-1H-pyrrolo[2,3-c]pyridin-3-yl)-4-[(methylsulfonyl)methyl]phenyl}amino]prop-2-enoate] | 47 | 109
11 | Cn1cc(-c2cc(S(C)(=O)=O)ccc2NCC(F)(F)F)c2cc[nH]c(=O)c21 [Example 69, 1-methyl-3-{5-(methylsulfonyl)-2-[(2,2,2-trifluoroethyl)amino]phenyl}-1,6-dihydro-7H-pyrrolo[2,3-c]pyridin-7-one] | 2290 | 773
12 | CCS(=O)(=O)Nc1ccc(Oc2ccc(F)cc2F)c(-c2cn(C)c3c(=O)[nH]c(C(=O)N4CCOCC4)cc23)c1 [Example 191, N-{4-(2,4-difluorophenoxy)-3-[1-methyl-5-(morpholin-4-ylcarbonyl)-7-oxo-6,7-dihydro-1H-pyrrolo[2,3-c]pyridin-3-yl]phenyl}ethanesulfonamide] | 54.6 | 7.63
13 | Cn1cc(-c2cc(NC(=O)CCc3ccccc3)ccc2Oc2ccc(F)cc2F)c2cc[nH]c(=O)c21 [Example 152, N-[4-(2,4-difluorophenoxy)-3-(1-methyl-7-oxo-6,7-dihydro-1H-pyrrolo[2,3-c]pyridin-3-yl)phenyl]-3-phenylpropanamide] | 95.3 | 141
14 | Cn1cc(-c2cc(NC(=O)c3ccccn3)ccc2Oc2ccc(F)cc2F)c2cc[nH]c(=O)c21 [Example 150, N-[4-(2,4-difluorophenoxy)-3-(1-methyl-7-oxo-6,7-dihydro-1H-pyrrolo[2,3-c]pyridin-3-yl)phenyl]pyridine-2-carboxamide] | 145 | 22
15 | CCS(=O)(=O)c1ccc(Oc2cccc(Cl)c2Cl)c(-c2cn(C)c3c(=O)[nH]ccc23)c1 [Example 84, 3-[2-(2,3-dichlorophenoxy)-5-(ethylsulfonyl)phenyl]-1-methyl-1,6-dihydro-7H-pyrrolo[2,3-c]pyridin-7-one] | 25 | 55
16 | Cn1cc(-c2cc(NCc3ccc(Oc4ccccc4)cc3)ccc2Oc2ccc(F)cc2F)c2cc[nH]c(=O)c21 [Example 173, 3-{2-(2,4-difluorophenoxy)-5[(4-phenoxybenzyl)amino]phenyl}-1-methyl-1,6-dihydro-7H-pyrrolo[2,3-c]pyridin-7-one] | 781 | 214
17 | Cn1cc(-c2cc(NCc3cccc(C#N)c3)ccc2Oc2ccc(F)cc2F)c2cc[nH]c(=O)c21 [Example 172, 3-({[4-(2,4-difluorophenoxy)-3-(1-methyl-7-oxo-6,7-dihydro-1H-pyrrolo[2,3-c]pyridin-3-yl)phenyl]amino}methyl)benzonitrile] | 226 | 71
18 | Cn1cc(-c2cc(CS(C)(=O)=O)cnc2Cl)c2cc[nH]c(=O)c21 [Example 143, 3-{2-chloro-5-[(methylsulfonyl)methyl]pyridin-3-yl}-1-methyl-1,6-dihydro-7H-pyrrolo[2,3-c]pyridin-7-one] | 1680 | 446
19 | Cn1cc(-c2cc(CNS(=O)(=O)c3cc(Cl)sc3Cl)ccc2Oc2ccc(F)cc2F)c2cc[nH]c(=O)c21 [Example 138, 2,5-dichloro-N-[4-(2,4-difluorophenoxy)-3-(1-methyl-7-oxo-6,7-dihydro-1H-pyrrolo[2,3-c]pyridin-3-yl)benzyl]thiophene-3-sulfonamide] | > 4000 | 1150
20 | CCS(=O)(=O)Nc1ccc(Oc2ccc(F)cc2F)c(-c2cn(C)c3c(=O)[nH]ccc23)c1 [Example 4, N-[4-(2,4-difluorophenoxy)-3-(1-methyl-7-oxo-6,7-dihydro-1H-pyrrolo[2,3-c]pyridin-3-yl)phenyl]ethanesulfonamide] | 7.2 | 5.9
21 | CCS(=O)(=O)c1ccc(Oc2cccnc2)c(-c2cn(C)c3c(=O)[nH]ccc23)c1 [Example 81, 3-[5-(ethylsulfonyl)-2-(pyridin-3-yloxy)phenyl]-1-methyl-1,6-dihydro-7H-pyrrolo[2,3-c]pyridin-7-one] | 100 | 81
